# Read-outs that look alike come from different tables or passages of the source.
# Columns and labels:
# DENV2 (TSV01 strain) = experiment: Cell-based flaviviral immunodetection assay (CFI), DENV2; details: Dengue virus, DENV2, BHK-21, 48 h, DENV2, BHK21 cells
# Experimental: BHK21 cells were seeded at 1.3×104 in 96-well plate and incubated overnight at 37° C. in 5% CO2 incubator. Confluent monolayer of BHK21 cells were infected with DENV2 (TSV01 strain) at an MOI (multiplicity of infection) 0.3 in the presence of various concentrations of test compounds and incubated for 1 hour at 37° C. in 5% CO2 incubator. Infected cells were incubated with test compounds for another 48 hours at 37° C. in 5A CO2. Cells were fixed with methanol and mouse monoclonal antibody 4G2 was used to detect DENV E protein, which was quantified using a secondary anti-mouse antibody conjugated with horseradish peroxidase (HRP). Absorbance was read at 450 nm and dose-response curve was plotted accordingly. The 50% effective concentration (EC50), that is, the concentration of the test compound that decreased the level of viral E protein production by 50%, was calculated by nonlinear regression analysis.
# [1] = tested on: DENV2 in THP-1 human monocytes; experiment: ADE infection of human monocytes (THP-1), plaque assay; assay type: cell-based; details: Dengue virus, THP-1, DENV2 + 4G2 antibody, 48 hours, read-out: EC50, suppression of viral replication under ADE condition
# Experimental: The activity of celgosivir in infected human monocytes, one of the primary circulating cell types infected by dengue virus, was examined, THP-1 cells were grown in RPMI-1640 maintenance medium containing 10% fetal calf serum and 1% Penicillin-streptomycin and cultured in 37° C. incubator supplemented with 5% CO2. For ADE infection in THP-1 cells, virus (DENV2, MOI-10) was mixed with sub-neutralizing concentration of humanized 4G2 monoclonal antibody (0.05 μg/0.5 ml) and allowed to incubate on ice for 1 hr in the serum free medium, to allow immune complex formations. The immune complex was then added on to THP-1 (1×10^5) cells per well in a 24 well plate and further incubated for 2 hours at 37° C. incubator. An excess unbound immune complex was then removed by spinning cells at 1000 rpm for 5 min and then cells were supplemented with complete growth maintenance medium. For drug testing in the ADE condition, cells were mock (untreated) or celgosivir-treated for 48 hours, and finally media supernatant was collected for plaque assay analysis.
# [2] = Population PK in dengue fever patients (NONMEM, predicted NCA parameters); assay type: in vivo, human; details: 400 mg loading dose then 200 mg every 12 hours for 9 doses
# Experimental: Population pharmacokinetic (PK) analysis of castanospermine plasma concentration data after administration of celgosivir was performed using the non-linear mixed effects modelling software NONMEM (version 7.2.0). (16) Pharmacokinetic parameters were estimated using the first order conditional estimation method (FOCE) with eta-epsilon interaction. Due to limited data during the input phase, first-order absorption/formation of castanospermine was assumed. Between-subject variability was assumed to be log-nomally distributed. Model development was guided by objective function value (OFV), precision of the parameter estimates, inspection of standard goodness of lit plots and scientific plausability. The emperical Bayes estimates from the final model were used to predict individual concentrations for a standard saturated sampling design (i.e., samples collected at 0, 0.25, 0.5, 1, 1.5, 2, 4, 6 and 12 hours post-dose)) after the first dose (400 mg) and dose 9 (day 5; 200 mg). […] The NCA parameter values were derived using the statistical analysis software R (version 3.0.1). (17) NCA parameters after dose 9 were only determined for subject who received this dose. […]
# [3] = cited from earlier work
# [4] = cited from earlier work; for AUCss / Cmin,ss / t1/2 / tmax: HIV-positive patients
# [5] = cited from earlier work
# [6] = radiolabeled castanospermine, PO or IV, within 24 hr
# [7] = celgosivir 10 mg/day for 14 days
# [8] = celgosivir 20 mg/day for 14 days
# [9] = celgosivir 40 mg/day for 14 days
# [10] = celgosivir 80 mg/day for 14 days
# [11] = celgosivir 160 mg/day for 14 days
# [12] = celgosivir 240 mg/day for 14 days
# [13] = celgosivir 360 mg/day for 14 days
# [14] = celgosivir 450 mg/day for 14 days
compound,measurement,setting,value
O[C@H]1[C@H](O)[C@@H](O)CN2CC[C@H](O)[C@H]12 [Castanospermine],EC50,DENV2 (TSV01 strain),~21 µM
same,EC50,[1],14 µM
same,variability in exposure between subjects,[2],small to moderate
same,mean Cmax in the portal vein,[3]; 400 mg/kg celgosivir PO,105600 ng/mL
same,AUC 0-60 min,"[3]; portal vein, 400 mg/kg celgosivir PO",63900 ng·h/mL
same,route of excretion of radioactivity,[3]; [6],majority of radioactivity was detected within urine
same,urinary radioactivity identified as castanospermine,[3]; [6],more than 92%
same,AUCss,[4]; [7],1000 ng·h/mL
same,"Cmin,ss",[4]; [7],8 ng/mL
same,t1/2,[4]; [7],13 h
same,tmax,[4]; [7],0.7 h
same,AUCss,[4]; [8],1750 ng·h/mL
same,"Cmin,ss",[4]; [8],11 ng/mL
same,t1/2,[4]; [8],27 h
same,tmax,[4]; [8],1 h
same,AUCss,[4]; [9],3610 ng·h/mL
same,"Cmin,ss",[4]; [9],23 ng/mL
same,t1/2,[4]; [9],30 h
same,tmax,[4]; [9],1 h
same,AUCss,[4]; [10],6530 ng·h/mL
same,"Cmin,ss",[4]; [10],29 ng/mL
same,t1/2,[4]; [10],16 h
same,tmax,[4]; [10],0.3 h
same,AUCss,[4]; [11],13300 ng·h/mL
same,"Cmin,ss",[4]; [11],70 ng/mL
same,t1/2,[4]; [11],21 h
same,tmax,[4]; [11],0.8 h
same,AUCss,[4]; [12],21500 ng·h/mL
same,"Cmin,ss",[4]; [12],110 ng/mL
same,t1/2,[4]; [12],16 h
same,tmax,[4]; [12],0.6 h
same,AUCss,[4]; [13],32100 ng·h/mL
same,"Cmin,ss",[4]; [13],179 ng/mL
same,t1/2,[4]; [13],15 h
same,tmax,[4]; [13],0.7 h
same,AUCss,[4]; [14],39800 ng·h/mL
same,"Cmin,ss",[4]; [14],191 ng/mL
same,t1/2,[4]; [14],14 h
same,excretion and metabolites,[4]; humans,"excreted unchanged in the urine, with no other metabolites detected"
same,gastrointestinal effects,"[5]; 2 g/kg, sucrose- and starch containing diets",severe diarrhea and high intestinal bacterial counts
same,GI toxicity,"[5]; diet of proteins, vitamins and glucose without sucrose or complex carbohydrates",ameliorated
